Experimental data reported in article PMC4519859, “Synthesis and Biological Evaluation of Novel Dehydroabietic Acid Derivatives Conjugated with Acyl-Thiourea Peptide Moiety as Antitumor Agents” (International Journal of Molecular Sciences, 2015).

Assays:
Type in all cases: cell-based
HL-7702 = assay: MTT cytotoxicity assay, HL-7702 normal cells; settings: L02, 48 h, normal human cells, mean ± SD, three independent experiments
Protocol: [The source words this procedure for another cell line and reports this cell line under the same test.] (§1) The in vitro cytotoxic potency of DHAA acyl-thiourea derivatives 8a–8o and 9a–9o were evaluated by 3-(4,5-dimethylthiazol-2-yl)-2,5-diphenyltetrazolium bromide (MTT) assay against HeLa, SK-OV-3 and MGC-803 tumor cell lines, with 5-FU as the positive control.
(§2) General procedure for cytotoxic evaluation in vitro: HeLa, HepG2, SK-OV-3 and MGC-803 cells were seeded into 96-well microculture plates and allowed to adhere for 24 h, respectively. After cells were exposed to compounds at concentrations from 100 to 0.01 μM for 48 h, medium was aspirated and replenished with complete medium. IC50 was evaluated by MTT tetrazolium dye assay. Each experiment was performed three times; Statistical analysis: All statistical analysis was performed with SPSS Version 10 (SPSS, Chicago, IL, USA). Data was analyzed by one-way ANOVA. Mean separations were performed using the least significant difference method. Each experiment was replicated thrice, and all experiments yielded similar results. Measurements from all the replicates were combined, and treatment effects were analyzed.

SK-OV-3 = assay: MTT cytotoxicity assay, SK-OV-3; settings: Homo sapiens, 48 h, mean ± SD, three independent experiments
Protocol: as §1, §2

MGC-803 = assay: MTT cytotoxicity assay, MGC-803; settings: Homo sapiens, 48 h, mean ± SD, three independent experiments
Protocol: as §1, §2

HeLa = assay: MTT cytotoxicity assay, HeLa; settings: Homo sapiens, 48 h, mean ± SD, three independent experiments
Protocol: as §1, §2

SMILES	IC50 (HL-7702) [µM]	IC50 (SK-OV-3) [µM]	IC50 (MGC-803) [µM]	IC50 (HeLa) [µM]
CC(C)c1ccc2c(c1)CCC1[C@](C)(C(=O)NC(=S)N[C@H](Cc3ccccc3)C(=O)Nc3ccc(Cl)cc3)CCC[C@]21C (stereo partly drawn) [Compound 9e, (1R,4aS)-N-(((R)-1-((4-Chlorophenyl)amino)-1-oxo-3-phenylpropan-2-yl)carbamothioyl)-7-isopropyl-1,4a-dimethyl-1,2,3,4,4a,9,10,10a-octahydrophenanthrene-1-carboxamide]	38.5 ± 1.22	18.5 ± 1.27	17.1 ± 2.87	17.2 ± 1.25
COc1ccccc1NC(=O)[C@@H](Cc1ccccc1)NC(=S)NC(=O)[C@]1(C)CCC[C@]2(C)c3ccc(C(C)C)cc3CCC12 (stereo partly drawn) [Compound 9f, (1R,4aS)-7-Isopropyl-N-(((R)-1-((2-methoxyphenyl)amino)-1-oxo-3-phenylpropan-2-yl)carbamothioyl)-1,4a-dimethyl-1,2,3,4,4a,9,10,10a-octahydrophenanthrene-1-carboxamide]	38.4 ± 1.45	18.9 ± 1.72	20.7 ± 1.41	28.1 ± 2.23
COc1ccc(NC(=O)[C@@H](Cc2ccccc2)NC(=S)NC(=O)[C@]2(C)CCC[C@]3(C)c4ccc(C(C)C)cc4CCC23)cc1 (stereo partly drawn) [Compound 9g, (1R,4aS)-7-Isopropyl-N-(((R)-1-((4-methoxyphenyl)amino)-1-oxo-3-phenylpropan-2-yl)carbamothioyl)-1,4a-dimethyl-1,2,3,4,4a,9,10,10a-octahydrophenanthrene-1-carboxamide]	41.1 ± 1.32	20.1 ± 1.78	26.1 ± 2.63	15.6 ± 1.53
CC(C)c1ccc2c(c1)CCC1[C@](C)(C(=O)NC(=S)N[C@H](Cc3ccccc3)C(=O)Nc3ccccc3F)CCC[C@]21C (stereo partly drawn) [Compound 9h, (1R,4aS)-N-(((R)-1-((2-Fluorophenyl)amino)-1-oxo-3-phenylpropan-2-yl)carbamothioyl)-7-isopropyl-1,4a-dimethyl-1,2,3,4,4a,9,10,10a-octahydrophenanthrene-1-carboxamide]	49.4 ± 2.64	28.8 ± 2.32	24.7 ± 3.33	18.8 ± 1.45
CC(C)c1ccc2c(c1)CCC1[C@](C)(C(=O)NC(=S)N[C@H](Cc3ccccc3)C(=O)Nc3ccc(F)cc3)CCC[C@]21C (stereo partly drawn) [Compound 9i, (1R,4aS)-N-(((R)-1-((4-Fluorophenyl)amino)-1-oxo-3-phenylpropan-2-yl)carbamothioyl)-7-isopropyl-1,4a-dimethyl-1,2,3,4,4a,9,10,10a-octahydrophenanthrene-1-carboxamide]	46.4 ± 2.44	26.5 ± 2.07	21.4 ± 1.88	23.7 ± 1.01
CC(C)c1ccc2c(c1)CCC1[C@](C)(C(=O)NC(=S)N[C@H](Cc3ccccc3)C(=O)Nc3ccccc3Br)CCC[C@]21C (stereo partly drawn) [Compound 9j, (1R,4aS)-N-(((R)-1-((2-Bromophenyl)amino)-1-oxo-3-phenylpropan-2-yl)carbamothioyl)-7-isopropyl-1,4a-dimethyl-1,2,3,4,4a,9,10,10a-octahydrophenanthrene-1-carboxamide]	60.5 ± 3.43	40.3 ± 3.41	21.3 ± 1.27	12.7 ± 1.03
CC(C)c1ccc2c(c1)CCC1[C@](C)(C(=O)NC(=S)N[C@H](Cc3ccccc3)C(=O)Nc3ccc(Br)cc3)CCC[C@]21C (stereo partly drawn) [Compound 9k, (1R,4aS)-N-(((R)-1-((4-Bromophenyl)amino)-1-oxo-3-phenylpropan-2-yl)carbamothioyl)-7-isopropyl-1,4a-dimethyl-1,2,3,4,4a,9,10,10a-octahydrophenanthrene-1-carboxamide]	66.5 ± 4.48	46.7 ± 4.76	25.5 ± 2.47	15.7 ± 1.13
Cc1cc(C)cc(NC(=O)[C@@H](Cc2ccccc2)NC(=S)NC(=O)[C@]2(C)CCC[C@]3(C)c4ccc(C(C)C)cc4CCC23)c1 (stereo partly drawn) [Compound 9l, (1R,4aS)-N-(((R)-1-((3,5-Dimethylphenyl)amino)-1-oxo-3-phenylpropan-2-yl)carbamothioyl)-7-isopropyl-1,4a-dimethyl-1,2,3,4,4a,9,10,10a-octahydrophenanthrene-1-carboxamide]	53.4 ± 2.24	31.5 ± 2.23	18.1	15.8 ± 1.55
CC(C)c1ccc2c(c1)CCC1[C@](C)(C(=O)NC(=S)N[C@H](Cc3ccccc3)C(=O)Nc3cccc4ccccc34)CCC[C@]21C (stereo partly drawn) [Compound 9m, (1R,4aS)-7-Isopropyl-1,4a-dimethyl-N-(((R)-1-(naphthalen-1-ylamino)-1-oxo-3-phenylpropan-2-yl)carbamothioyl)-1,2,3,4,4a,9,10,10a-octahydrophenanthrene-1-carboxamide]	35.6 ± 1.53	15.3 ± 1.73	22.9 ± 1.66	12.8 ± 1.2
COc1cc(NC(=O)[C@@H](Cc2ccccc2)NC(=S)NC(=O)[C@]2(C)CCC[C@]3(C)c4ccc(C(C)C)cc4CCC23)cc(OC)c1OC (stereo partly drawn) [Compound 9o, (1R,4aS)-7-Isopropyl-1,4a-dimethyl-N-(((R)-1-oxo-3-phenyl-1-((3,4,5-trimethoxyphenyl)amino)propan-2-yl)carbamothioyl)-1,2,3,4,4a,9,10,10a-octahydrophenanthrene-1-carboxamide]	59.3 ± 2.54	29.3 ± 2.04	29.3 ± 2.09	17.5 ± 1.54
